According to patent US20230012368A1 (Hoffmann-La Roche Inc., priority 2018, published 2023):
Counter-ions that a name gives are not always drawn.

Each compound was assayed on Acinetobacter baumannii ATCC 17978 (assay: Antimicrobial susceptibility testing: 90% growth inhibitory concentration (IC90) determination). Conditions: Acinetobacter baumannii, ATCC17978, 16 h, 90% growth inhibitory concentration; Acinetobacter baumannii ATCC17978; Iso-Sensitest broth, OD 600 nm over 16h; read-out: ATCC17978 IC90.
Format: cell-based
How it was run: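 Compounds serially twofold diluted (e.g. 50 to 0.097 μM final) in Iso-Sensitest broth, inoculated at ~5×10^(5) CFU/ml, incubated at 35±2° C. OD600 read every 20 minutes over 16h. IC90 taken as concentration inhibiting 90% of growth during logarithmic phase.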

IC90 | SMILES
270 nM | N#CCOc1ccc(-c2cnc3c(Nc4ccc(C(=O)NCCc5ccncc5)c(Cl)c4)nccn23)c(F)c1Cl [Example 80, 2-chloro-4-[[3-[3-chloro-4-(cyanomethoxy)-2-fluoro-phenyl]imidazo[1,2-a]pyrazin-8-yl]amino]-N-[2-(4-pyridyl)ethyl] benzamide]
3300 nM | Cc1cc(Nc2nccn3c(-c4ccc(OCC#CCN)cc4)cnc23)ccc1C(=O)N(C)CCC1CCN(C)CC1 [Example 319, 4-[[3-[4-(4-aminobut-2-ynoxy)phenyl]imidazo[1,2-a]pyrazin-8-yl]amino]-N,2-dimethyl-N-[2-(1-methylpiperidin-4-yl)ethyl]benzamide;formic acid]
80 nM | Cc1cc(Nc2nccn3c(-c4ccc(OCC#N)c(F)c4F)cnc23)ccc1C(=O)NCCCNC(=O)[C@@H]1C[C@](C)(O)CN1 [Example 134, (2S,4S)-N-[3-[[4-[[3-[4-(cyanomethoxy)-2,3-difluoro-phenyl]imidazo[1,2-a]pyrazin-8-yl]amino]-2-methyl-benzoyl]amino]propyl]-4-hydroxy-4-methyl-pyrrolidine-2-carboxamide formate]
8900 nM | COc1ccc(-c2cnc3c(Nc4ccc(C(=O)N(C)CCCC(=O)O)c(C)c4)nccn23)cc1F [Example 174, 4-[[4-[[3-(3-fluoro-4-methoxyphenyl)imidazo[1,2-a]pyrazin-8-yl]amino]-2-methylbenzoyl]-methylamino]butanoic acid]
290 nM | CCc1cc(Nc2nccn3c(-c4ccc(Oc5ncccn5)c(F)c4F)cnc23)ccc1C(=O)NCCCNC(=O)C1CCNCC1 [Example 544, N-(3-(4-((3-(2,3-difluoro-4-(pyrimidin-2-yloxy)phenyl)imidazo[1,2-a]pyrazin-8-yl)amino)-2-ethylbenzamido)propyl)piper-idine-4-carboxamide formate]
100 nM | COc1ccc(-c2cnc3c(Nc4ccc(C(=O)N[C@H](C)CN)c(Cl)c4)nccn23)c(F)c1F [Example 504, #N!-[(2#R!)-1-aminopropan-2-yl]-2-chloro-4-[[3-(2,3-difluoro-4-methoxyphenyl)imidazo[1,2-a]pyrazin-8-yl]amino]benzamide;dihydro-chloride]
230 nM | CCc1cc(Nc2nccn3c(-c4ccc(OCC#CCOCCN)c(F)c4F)cnc23)ccc1C(=O)NCCCN [Example 159, 4-[[3-[4-[4-(2-aminoethoxy)but-2-ynoxy]-2,3-difluoro-phenyl]imidazo[1,2-a]pyrazin-8-yl]amino]-N-(3-aminopropyl)-2-ethyl-benzamide]
670 nM | CCc1cc(Nc2nccn3c(-c4ccc(OCC#CCO)c(F)c4F)cnc23)ccc1C(=O)NCCCN [Example 419, N-(3-aminopropyl)-4-[[3-[2,3-difluoro-4-(4-hydroxybut-2-ynoxy)phenyl]imidazo[1,2-a]pyrazin-8-yl]amino]-2-ethyl-benzamide]
170 nM | COc1ccc(-c2cnc3c(Nc4ccc(C(=O)NCC5CCNCC5)c(Cl)c4)nccn23)c(F)c1F [Example 58, 2-chloro-4-[[3-(2,3-difluoro-4-methoxy-phenyl)imidazo[1,2-a]pyrazin-8-yl]amino]-N-(4-piperidylmethyl) benzamide]
350 nM | CCc1cc(Nc2nccn3c(-c4ccc(OC)c(F)c4F)cnc23)ccc1C(=O)NC(C)(C)CN [Example 99, N-(1-amino-2-methylpropan-2-yl)-4-((3-(2,3-difluoro-4-methoxyphenyl)imidazo [1,2-a]pyrazin-8-yl)amino)-2-ethylbenzamide hydrochloride]
1000 nM | COc1ccc(-c2cnc3c(Nc4ccc(C(=O)NCC5CCCOC5)c(C)c4)nccn23)cc1F (stereo not drawn) [Example 72, 4-((3-(3-fluoro-4-methoxyphenyl)imidazo [1,2-a]pyrazin-8-yl)amino)-2-methyl-N-((tetrahydro-2H-pyran-3-yl)methyl)benzamide]
740 nM | CN(CCCSc1nc(=O)c(=O)[nH]n1C)C(=O)c1ccc(Nc2nccn3c(-c4ccc(OCC#N)c(F)c4F)cnc23)cc1Cl [Example 395, 2-chloro-4-((3-(4-(cyanomethoxy)-2,3-difluorophenyl)imidazo[1,2-a]pyrazin-8-yl)amino)-N-methyl-N-(3-((2-methyl-5,6-dioxo-1,2,5,6-tetrahydro-1,2,4-triazin-3-yl)thio)propyl)benzamide]
250 nM | CCc1cc(Nc2nccn3c(-c4ccc(OC)c(F)c4Cl)cnc23)ccc1C(=O)NCCNC(=O)[C@H](N)CCCNC(=N)N [Example 129, N-[2-[[(2R)-2-amino-5-guanidino-pentanoyl]amino]ethyl]-4-[[3-(2-chloro-3-fluoro-4-methoxy-phenyl)imidazo[1,2-a]pyrazin-8-yl]amino]-2-ethyl-benzamide formate]
3600 nM | Cc1cc(Nc2nccn3c(-c4ccc(OC(F)F)cc4)cnc23)ccc1C(=O)N(C)CCCN1CCCCC1 [Example 257, 4-[[3-[4-(difluoromethoxy)phenyl]im-idazo[1,2-a]pyrazin-8-yl]amino]-N,2-dimethyl-N-(3-piperidin-1-ylpropyl)benzamide]
1000 nM | Cc1cc(Nc2nccn3c(-c4ccc(OC(F)F)cc4)cnc23)ccc1C(=O)N(C)CCCN1CCNCC1 [Example 219, 4-[[3-[4-(difluoromethoxy)phenyl]im-idazo[1,2-a]pyrazin-8-yl]amino]-N,2-dimethyl-N-(3-piperazin-1-ylpropyl)benzamide;hydrochlo-ride]
210 nM | Cc1cc(Nc2nccn3c(-c4ccc(OCC#N)c(F)c4F)cnc23)ccc1C(=O)NC[C@@H](N)CNC(=O)[C@@H]1C[C@@H](O)CN1 [Example 473, (2S,4R)-N-[(2R)-2-amino-3-[[4-[[3-[4-(cyanomethoxy)-2,3-difluoro-phenyl]imidazo[1,2-a]pyrazin-8-yl]amino]-2-methyl-benzoyl]amino]propyl]-4-hydroxy-pyrrolidine-2-carboxamide; formic acid]
260 nM | CCc1cc(Nc2nccn3c(-c4ccc(OC(F)F)c(F)c4F)cnc23)ccc1C(=O)N[C@@H](C)CNC(=O)C1CCN(CC2CNC2)CC1 (racemic) [Example 553, rac-(R)-1-(azetidin-3-ylmethyl)-N-(2-(4-((3-(4-(difluoromethoxy)-2,3-difluorophenyl)imidazo[1,2-a]pyrazin-8-yl)amino)-2-ethylbenzamido)propyl)piper-idine-4-carboxamide formate]
4900 nM | Cc1cc(Nc2nccn3c(-c4ccc(OC(F)F)cc4)cnc23)ccc1C(=O)NCC1(O)CCNCC1 [Example 261, 4-[[3-[4-(difluoromethoxy)phenyl]im-idazo[1,2-a]pyrazin-8-yl]amino]-N-[(4-hydroxypiperidin-4-yl)methyl]-2-methylbenzamide; hydrochlo-ride]
120 nM | COc1ccc(-c2cnc3c(Nc4ccc(C(=O)N(C)C)cc4)nccn23)c(F)c1F [Example 107, 4-[[3-(2,3-difluoro-4-methoxy-phenyl)imidazo[1,2-a]pyrazin-4-yl]amino]-N,N-dimethyl-benzamide]
207 nM | CCc1cc(Nc2nccn3c(-c4ccc(OC)cc4C(F)(F)F)cnc23)ccc1C(=O)NC [Example 537, 2-ethyl-4-[[3-[4-methoxy-2-(trifluoromethyl)phenyl]imid-azo[1,2-a]pyrazin-8-yl]amino]-N-methyl-benzamide]
60 nM | CCc1cc(Nc2nccn3c(-c4ccc(OC)c(F)c4F)cnc23)ccc1C(=O)NCCN1CCNCC1 [Example 323, 4-[[3-(2,3-difluoro-4-methoxyphenyl)imidazo[1,2-a]pyrazin-8-yl]amino]-2-ethyl-N-(2-piperazin-1-ylethyl)benzamide]
